Experimental findings from ChEMBL document CHEMBL1201862, “PubChem BioAssay data set” (2004) are described below.

Test systems include EKVX; HCT-116; HCT-15; HOP-62; MCF7; MDA-MB-231; MOLT-4; NCI-H226; NCI-H460; OVCAR-3; PC-3; RXF 393; SF-295; SF-539; SK-MEL-28; SK-MEL-5; SR; SW-620; T47D; UO-31.
What all share (test): NCI tumour cell line growth inhibition, 48 h

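Values below derive from 48-hour exposures of cells grown in 96-well plates, with endpoints linearly interpolated between the two concentrations bracketing the appropriate inhibition level. The concentration for 50% growth inhibition is given as GI50.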 Calls of active or inactive are those of the source. Rule as the data show it: active = GI50 up to about 1.1 µM and inactive = higher. Some results are limits rather than exact numbers.

In the case of `CCCC(=O)OCC1OC(n2cc(F)c(=O)[nH]c2=O)CC1OC(=O)CCC` (stereo not given), the GI50 in the test on EKVX is > 10 µM (inactive); in the test with HCT-116, 0.524 µM (active); in the test with HCT-15, greater than 4.41 µM; in the test on HOP-62, 0.0684 µM (active); in the test on MCF7 it was 0.0169 µM (active); in the test on MDA-MB-231 it was > 10 µM (inactive). Further, the GI50 is 4.63 µM (inactive) in the test on MOLT-4; 5.53 µM (inactive) with NCI-H226; 0.119 µM (active) in the test on NCI-H460; 1.67 µM (inactive) in the test on OVCAR-3; 1.55 µM (inactive) in the test on PC-3; > 9.2 µM (inactive) with RXF 393. The GI50 in the test with SF-295 is 0.127 µM (active); with SF-539 it was 0.00511 µM (active); in the test on SK-MEL-28 it was > 6.68 µM (inactive); with SK-MEL-5, 0.279 µM (active); in the test on SR, 0.034 µM (active); in the test with SW-620, > 10 µM (inactive). Further, the GI50 with T47D is > 6.15 µM (inactive); with UO-31, 0.13 µM (active).
For the molecule `CCN(CC)c1ccc(/C=c2\nc(-c3ccccc3)n3c2nc2ccccc23)cc1`, the GI50 is 1.67 µM (inactive) in the test on EKVX; 3.64 µM (inactive) in the test with HCT-116; 1.23 µM in the test on HCT-15; 7.19 µM (inactive) with HOP-62; 14.6 µM (inactive) in the test with MCF7; 14.8 µM (inactive) in the test with MDA-MB-231. The GI50 is 1.63 µM (inactive) in the test on MOLT-4; 14.5 µM (inactive) with NCI-H226; 1.98 µM (inactive) with NCI-H460; 9.62 µM (inactive) with OVCAR-3; 1.93 µM (inactive) in the test on PC-3; 16.8 µM (inactive) in the test on RXF 393. For the same molecule, the GI50 in the test on SF-295 was 4.58 µM (inactive); in the test on SF-539, 1.48 µM (inactive); in the test on SK-MEL-28 it was 0.0231 µM (active); with SK-MEL-5, 3.64 µM (inactive); with SR it was 1.68 µM (inactive); in the test with SW-620 it was 4.7 µM (inactive). The GI50 is 0.0256 µM (active) in the test on T47D and 13.5 µM (inactive) in the test on UO-31.
In the case of `COC(=O)[C@]1(C)[C@H]2C[C@H]3O[C@H]4[C@H](O)[C@@H](O)OC(CC(O)C(C5=CC(=O)OC5)C(C5=CC(=O)OC5)C(O)CC56CCCCC7[C@@H](C)[C@H](C[C@H]8[C@](C)(C(=O)OC)[C@H](O)CC[C@]78C)O[C@H]([C@@H](O)[C@H](O)O5)[C@H]6O)(CCCCC([C@@H]3C)[C@]2(C)CC[C@@H]1O)[C@H]4O` (stereo not given in full), the GI50 is 0.0295 µM (active) with EKVX; 0.0404 µM (active) in the test on HCT-116; 0.143 µM in the test on HCT-15; 0.065 µM (active) with HOP-62; 0.111 µM (active) in the test with MCF7; 0.347 µM (active) with MDA-MB-231. Besides, the GI50 is < 0.0184 µM (active) in the test with MOLT-4; 0.973 µM (active) in the test on NCI-H226; 0.0233 µM (active) in the test with NCI-H460; 0.103 µM (active) in the test with OVCAR-3; 0.065 µM (active) in the test with PC-3; 0.0356 µM (active) in the test on RXF 393. Also, the GI50 was 0.0767 µM (active) with SF-295; 0.0394 µM (active) in the test on SF-539; 0.262 µM (active) with SK-MEL-28; 0.0296 µM (active) in the test with SK-MEL-5; 0.0545 µM (active) in the test with SR; 0.168 µM (active) with SW-620. Also, the GI50 is 0.299 µM (active) in the test with T47D and 0.057 µM (active) in the test with UO-31.
For `CC1=CCC[C@H]2[C@](C)(CC3=CC(=O)C4SCCSC4C3=O)[C@@H](C)CC[C@]12C` (stereo not given in full), the GI50 in the test on EKVX was 21.3 µM (inactive); in the test with HCT-116, 13.8 µM (inactive); with HCT-15, 23.3 µM; with HOP-62 it was 15 µM (inactive); with MCF7, 20.5 µM (inactive); in the test with MDA-MB-231 it was 13.2 µM (inactive). Besides, the GI50 was 21.6 µM (inactive) in the test on MOLT-4; 15.9 µM (inactive) in the test on NCI-H226; 20 µM (inactive) in the test on NCI-H460; 18.5 µM (inactive) in the test on OVCAR-3; 13.5 µM (inactive) in the test on PC-3; 18.6 µM (inactive) in the test on RXF 393. Besides, the GI50 is 10.9 µM (inactive) in the test on SF-295; 21 µM (inactive) in the test on SF-539; 18 µM (inactive) in the test on SK-MEL-28; 13.8 µM (inactive) with SK-MEL-5; 11.1 µM (inactive) with SR; 17.1 µM (inactive) in the test on SW-620. The GI50 with T47D was > 100 µM (inactive); in the test with UO-31, 17.6 µM (inactive).
`O=C(O)[C@H]1NC[C@H]2C(Br)=NO[C@@H]12`: the GI50 was > 100 µM (inactive) with EKVX; > 100 µM (inactive) with HCT-116; greater than 100 µM in the test with HCT-15; > 100 µM (inactive) in the test on HOP-62; > 100 µM (inactive) in the test with MCF7; > 100 µM (inactive) with MDA-MB-231. For the same molecule, the GI50 with MOLT-4, in the test on NCI-H226, with NCI-H460, in the test on OVCAR-3, in the test on PC-3 and in the test on RXF 393 was > 100 µM (inactive) in each case. For the same molecule, the GI50 in the test with SF-295, with SF-539, in the test with SK-MEL-28, in the test with SK-MEL-5, with SR and with SW-620 was > 100 µM (inactive) in each case. In addition, the GI50 with T47D and in the test on UO-31 was > 100 µM (inactive) throughout.
Turning to `CN(C)c1n/c(=N/Cc2ccco2)ss1`, the GI50 with EKVX was 37.9 µM (inactive); in the test with HCT-116, 8.97 µM (inactive); in the test on HCT-15, 21.3 µM; in the test with HOP-62 it was 24.9 µM (inactive); in the test with MCF7 it was 16.4 µM (inactive); in the test on MDA-MB-231, 15.8 µM (inactive). Also, the GI50 is 5.73 µM (inactive) in the test on MOLT-4; 62.2 µM (inactive) in the test with NCI-H226; 10.9 µM (inactive) in the test on NCI-H460; 8.97 µM (inactive) in the test on OVCAR-3; 15.5 µM (inactive) with PC-3; 7.98 µM (inactive) in the test with RXF 393. The GI50 in the test with SF-295 was 37.2 µM (inactive); with SF-539 it was 13 µM (inactive); in the test on SK-MEL-28 it was 11.6 µM (inactive); in the test on SK-MEL-5, 2.76 µM (inactive); with SR it was 0.521 µM (active); in the test with SW-620, 26.2 µM (inactive). Besides, the GI50 in the test with T47D was 14.3 µM (inactive); with UO-31, 28.8 µM (inactive).
As to `COc1cc(/C=C/C(=O)O)ccc1OS(=O)(=O)O`, the GI50 was > 100 µM (inactive) in the test on EKVX; > 100 µM (inactive) with HCT-116; greater than 100 µM with HCT-15; > 100 µM (inactive) with HOP-62; > 100 µM (inactive) in the test on MCF7; > 100 µM (inactive) in the test on MDA-MB-231. In addition, the GI50 with MOLT-4, in the test on NCI-H226, with NCI-H460, in the test on OVCAR-3, in the test on PC-3 and with RXF 393 was > 100 µM (inactive) in each case. Also, the GI50 in the test with SF-295, in the test on SF-539, in the test on SK-MEL-28, with SK-MEL-5, in the test with SR and in the test on SW-620 was > 100 µM (inactive) each time. In addition, the GI50 in the test on T47D and in the test on UO-31 was > 100 µM (inactive) in each case.
